According to patent US20040006077A1, “Thiazine and oxazine derivatives as MMP-13 inhibitors” (priority 2002, published 2004):

Key:
Format in all cases: biochemical
[1] = target: T1, catalytic domain of human MMP-13 (Homo sapiens, UniProt P45452); experiment: Inhibition of proteolysis of thioester peptide substrate by MMP-13; conditions: peptide substrate Ac-Pro-Leu-Gly-thioester-Leu-Leu-Gly-OEt 100 μM, pH 7.0, absorbance at 405 nm
T1 construct: 2.5 nM of the catalytic domain of human MMP-13
Method: (§1) The inhibitory activity of the compounds of formula (I) according to the invention with respect to matrix metalloprotease-13 is evaluated by testing the ability of the compounds of the invention to inhibit the proteolysis of a peptide substrate with MMP-13.
(§2) The peptide substrate used in the test is the following peptide: Ac-Pro-Leu-Gly-thioester-Leu-Leu-Gly-OEt.
The inhibitory activity of a compound of formula (I) according to the invention is expressed as the IC50 value, which is the concentration of inhibitor for which an inhibition of 50% of the activity of the matrix metalloprotease under consideration is observed.
To carry out this test, a reaction medium of 100 μt volume is prepared, containing: 50 mM of HEPES buffer, 10 mM of CaCl2 and 1 mM of 5,5′-dithiobis-(2-nitrobenzoic acid) (DTNB), and 100 μM of substrate, the pH being adjusted to 7.0.
Increasing concentrations of the inhibitory compound present in a 2.0% DMSO solution and 2.5 nM of the catalytic domain of human MMP-13 are added to the test samples.
(§3) The concentrations of inhibitors present in the test samples range from 100 μM to 0.5 nM. The measurement of the proteolysis of the substrate peptide is monitored by measuring the absorbance at 405 nm using a spectrophotometer for reading microplates, at the laboratory temperature, the measurements being carried out continuously for 10 to 15 minutes.
The IC50 values are calculated from a curve in which the percentage of the catalytic activity relative to the control is represented on the X-axis and the concentration of inhibitor is represented on the Y-axis.

MMP-1 = target: T2, MMP-1 (Homo sapiens, UniProt P03956); experiment: MMP-13 test adapted to MMP-1
T2 sequence (P03956 100-469): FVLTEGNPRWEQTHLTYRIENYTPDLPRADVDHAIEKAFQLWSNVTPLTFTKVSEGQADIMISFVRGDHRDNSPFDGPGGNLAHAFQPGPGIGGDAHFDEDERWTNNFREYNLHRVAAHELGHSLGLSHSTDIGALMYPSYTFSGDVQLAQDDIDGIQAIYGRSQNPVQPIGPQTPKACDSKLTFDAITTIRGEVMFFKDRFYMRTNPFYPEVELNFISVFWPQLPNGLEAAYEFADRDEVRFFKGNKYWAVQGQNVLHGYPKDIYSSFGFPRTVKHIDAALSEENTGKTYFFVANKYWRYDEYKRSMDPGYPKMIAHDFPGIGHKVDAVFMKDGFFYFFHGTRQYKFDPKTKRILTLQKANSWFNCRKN

MMP-3 = MMP-3 (Homo sapiens, UniProt P08254); experiment: MMP-13 test adapted to MMP-3
Method: as §1, §2
(§4) The inhibitory activity of a compound of formula (I) according to the invention is expressed as the IC50 value, which is the concentration of inhibitor for which an inhibition of 50% of the activity of the matrix metalloprotease under consideration is observed. […]
as §3
(§5) The IC50 values are calculated from a curve in which the percentage of the catalytic activity relative to the control is represented on the X-axis and the concentration of inhibitor is represented on the Y-axis. […]

MMP-7 = target: T3, MMP-7 (Homo sapiens, UniProt P09237); experiment: MMP-13 test adapted to MMP-7
T3 sequence (P09237 95-267): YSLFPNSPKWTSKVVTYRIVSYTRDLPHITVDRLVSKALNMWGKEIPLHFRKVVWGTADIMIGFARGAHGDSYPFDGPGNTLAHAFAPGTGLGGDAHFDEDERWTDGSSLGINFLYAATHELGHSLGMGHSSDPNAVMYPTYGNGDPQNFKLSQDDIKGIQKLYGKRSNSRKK
Method: as §1, §2, §4, §3, §5

Sequence of MMP-3 (P08254 100-477, species assumed): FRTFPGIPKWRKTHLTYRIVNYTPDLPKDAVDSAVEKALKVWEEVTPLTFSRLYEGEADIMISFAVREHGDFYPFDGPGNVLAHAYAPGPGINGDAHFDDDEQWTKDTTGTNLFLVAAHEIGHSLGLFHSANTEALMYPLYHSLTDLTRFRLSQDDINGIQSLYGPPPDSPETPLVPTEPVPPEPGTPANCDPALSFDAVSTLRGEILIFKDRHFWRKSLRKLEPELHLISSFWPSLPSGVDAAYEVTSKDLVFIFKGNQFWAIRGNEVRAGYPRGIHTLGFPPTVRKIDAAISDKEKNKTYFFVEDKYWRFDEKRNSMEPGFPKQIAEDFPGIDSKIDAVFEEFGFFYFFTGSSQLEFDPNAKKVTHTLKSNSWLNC

## COc1ccc(CNC(=O)c2ccc3sc(=O)n(Cc4ccccc4)c(=O)c3c2)cc1 [Example 1, 3-Benzyl-2,4-dioxo-3,4-dihydro-2H-benz[e][1,3]thiazine-6-carboxylic acid 4-methoxy benzylamide]
[1]
  IC50: 0.037 µM
MMP-1
  IC50: 30 µM
MMP-3
  IC50: 18 µM
MMP-7
  IC50: 30 µM

## COc1ccc(CNC(=O)c2ccc3oc(=O)n(Cc4ccc(OC)cc4)c(=O)c3c2)cc1 [Example 2]
[1]
  IC50: 0.063 µM

## O=C(O)c1ccc(Cn2c(=O)sc3ccc(C#CCc4ccccc4)cc3c2=O)cc1 [Example 3, 4-[2,4-Dioxo-6-(3-phenyl-prop-1ynyl)-4H-1,3-benzothiazin-3-ylmethyl]-benzoic acid]
[1]
  IC50: 0.0012 µM
